Data as given in ChEMBL document CHEMBL1143419, “Safety and pharmacokinetics of Bevirimat (PA-457), a novel inhibitor of human immunodeficiency virus maturation, in healthy volunteers” (Antimicrob Agents Chemother, 2007).

What was measured:
[1] = Tmax in healthy human plasma at 25 mg, po administered as single dose; type: ADME, organism-based
[2] = tested on: Homo sapiens; assay: Dose normalized AUC (0 to infinity) in healthy human plasma at 100 mg, po administered as single dose; type: ADME, organism-based; set-up: dose 100 mg, time infinity, route oral; settings: in vivo
[3] = tested on: Homo sapiens; assay: Cmax in heathy human plasma after 100 mg oral dose, normalised for 70 kg subject; type: ADME, organism-based; set-up: dose 100 mg, route oral; settings: in vivo
[4] = Apparent oral clearance in healthy human plasma at 25 mg, po administered as single dose; type: ADME, organism-based
[5] = Drug concentration in healthy human urine assessed as conjugated drug level at 250 mg, po administered as single dose after 48 hrs; type: ADME, organism-based; settings: in vivo
[6] = Apparent oral clearance in healthy human plasma at 250 mg, po administered as single dose; type: ADME, organism-based
[7] = Tmax in healthy human plasma at 50 mg, po administered as single dose; type: ADME, organism-based
[8] = Apparent oral clearance in healthy human plasma at 50 mg, po administered as single dose; type: ADME, organism-based
[9] = Cmax in healthy human plasma at 250 mg, po administered as single dose; type: ADME, organism-based; set-up: dose 250 mg, route oral
[10] = Apparent oral clearance in healthy human plasma at 100 mg, po administered as single dose; type: ADME, organism-based
[11] = tested on: Homo sapiens; assay: Cmax in healthy human plasma after 25 mg oral dose, normalised for 70 kg subject; type: ADME, organism-based; set-up: dose 25 mg, route oral; settings: in vivo
[12] = AUC (0 to infinity) in healthy human plasma at 100 mg, po administered as single dose; type: ADME, organism-based; set-up: dose 100 mg, route oral, time infinity
[13] = tested on: Homo sapiens; assay: Toxicity in healthy human assessed as adverse event occurrence at 50 mg, po administered as single dose; type: organism-based; settings: in vivo
[14] = tested on: Homo sapiens; assay: Toxicity in healthy human assessed as adverse event occurrence at 250 mg, po administered as single dose; type: organism-based; settings: in vivo
[15] = Tmax in healthy human plasma at 100 mg, po administered as single dose; type: ADME, organism-based
[16] = Cmax in healthy human plasma at 25 mg, po administered as single dose; type: ADME, organism-based; set-up: dose 25 mg, route oral
[17] = tested on: Homo sapiens; assay: Dose normalized AUC (0 to infinity) in healthy human plasma at 25 mg, po administered as single dose; type: ADME, organism-based; set-up: dose 25 mg, time infinity, route oral; settings: in vivo
[18] = AUC (0 to infinity) in healthy human plasma at 50 mg, po administered as single dose; type: ADME, organism-based; set-up: dose 50 mg, route oral, time infinity
[19] = Tmax in healthy human plasma at 250 mg, po administered as single dose; type: ADME, organism-based
[20] = AUC (0 to infinity) in healthy human plasma at 250 mg, po administered as single dose; type: ADME, organism-based; set-up: dose 250 mg, time infinity, route oral
[21] = Half life in healthy human plasma at 25 mg, po administered as single dose; type: ADME, organism-based
[22] = Half life in healthy human plasma at 250 mg, po administered as single dose; type: ADME, organism-based
[23] = Cmax in healthy human plasma at 50 mg, po administered as single dose; type: ADME, organism-based; set-up: dose 50 mg, route oral
[24] = tested on: Homo sapiens; assay: Toxicity in healthy human assessed as adverse event occurrence at 100 mg, po administered as single dose; type: organism-based; settings: in vivo
[25] = Half life in healthy human plasma at 100 mg, po administered as single dose; type: ADME, organism-based
[26] = AUC (0 to infinity) in healthy human plasma at 25 mg, po administered as single dose; type: ADME, organism-based; set-up: dose 25 mg, time infinity, route oral
[27] = tested on: Homo sapiens; assay: Cmax in healthy human plasma after 50 mg oral dose, normalised for 70 kg subject; type: ADME, organism-based; set-up: dose 50 mg, route oral; settings: in vivo
[28] = Drug concentration in healthy human urine assessed as unconjugated drug level at 250 mg, po administered as single dose after 48 hrs; type: ADME, organism-based; settings: read-out: Drug uptake
[29] = tested on: Homo sapiens; assay: Cmax in healthy human plasma after 250 mg oral dose, normalised for 70 kg subject; type: ADME, organism-based; set-up: dose 250 mg, route oral; settings: in vivo
[30] = Half life in healthy human plasma at 50 mg, po administered as single dose; type: ADME, organism-based
[31] = tested on: Homo sapiens; assay: Toxicity in healthy human assessed as adverse event occurrence at 25 mg, po administered as single dose; type: organism-based; settings: in vivo
[32] = tested on: Homo sapiens; assay: Dose normalized AUC (0 to infinity) in healthy human plasma at 250 mg, po administered as single dose; type: ADME, organism-based; set-up: dose 250 mg, route oral, time infinity; settings: in vivo
[33] = tested on: Homo sapiens; assay: Dose normalized AUC (0 to infinity) in healthy human plasma at 50 mg, po administered as single dose; type: ADME, organism-based; set-up: dose 50 mg, time infinity, route oral; settings: in vivo

`C=C(C)[C@@H]1CC[C@]2(C(=O)O)CC[C@]3(C)[C@H](CC[C@@H]4[C@@]5(C)CC[C@H](OC(=O)CC(C)(C)C(=O)O)C(C)(C)[C@@H]5CC[C@]43C)[C@@H]12` [BEVIRIMAT] showed a Tmax [1] of 1.75 h, an AUC [2] of 1014 µg·h/mL and a Cmax [3] of 14900 ng/mL. It also gave a CL/F [4] of 2.89 mL/h/kg, a Drug uptake [5] of 0.82 %ID and a CL/F [6] of 2.43 mL/h/kg. It also gave a Tmax [7] of 1 h, a CL/F [8] of 2.76 mL/h/kg and a Cmax [9] of 30000 ng/mL. It also gave a CL/F [10] of 1.75 mL/h/kg, a Cmax [11] of 2800 ng/mL and an AUC(0-inf) [12] of 983 µg·h/mL. For the same compound, the Activity [13] was 16.7%, the Activity [14] was 33.3% and the Tmax [15] was 2 h. It also gave a Cmax [16] of 2240 ng/mL, an AUC [17] of 170.2 µg·h/mL and an AUC(0-inf) [18] of 312 µg·h/mL. The Tmax [19] was 2.5 h, the AUC(0-inf) [20] was 1800 µg·h/mL and the half-life [21] was 55.8 h. It also gave a half-life [22] of 69 h, a Cmax [23] of 6060 ng/mL and an Activity [24] of 50%. For the same compound, the half-life [25] was 75.4 h, the AUC(0-inf) [26] was 151 µg·h/mL and the Cmax [27] was 7300 ng/mL. It also gave a dose excreted at 48 h [28] of 0.82%, a Cmax [29] of 31100 ng/mL and a half-life [30] of 56.7 h. For the same compound, the Activity [31] was 16.7%, the AUC [32] was 2221.8 µg·h/mL and the AUC [33] was 362.1 µg·h/mL.
